From patent publication US11389415B2, “Methods of regulating cannabinoid receptor activity-related disorders and diseases” (The United States of America as represented by the …, priority 2012, dated 2022)
Where “and” joins values, the source holds several entries; their conditions need not be identical. Equal values may be shown once.

Experiments:
[1] = Effect on central nervous system functions; assay type: in vivo; conditions: as compared to tetrahydrocannabinol
Procedure: Additional studies were performed which further evaluated the effect of MNF on central nervous system functions.

[2] = Plasma and brain tissue concentrations after IV administration in Sprague-Dawley rats; assay type: in vivo, rat; conditions: for AUCinf / AUClast / Cmax / t1/2 (hr), elimination phase half life / C^0 (ng/ml), plasma concentration extrapolated to time 0 / Cl (ml/hr/kg), whole body clearance / V (l/kg), apparent volume of distribution: male Sprague-Dawley rats; for AUCinf / AUClast / Cmax / t1/2 (hr), elimination phase half life: plasma
Procedure: To determine plasma and brain tissue concentrations of MNF, the concentrations of MNF and its metabolites in plasma and brain tissue samples obtained from male Sprague-Dawley rats were determined after administration of a single IV dose of 10 mg/kg of MNF. The assays were conducted using an Eclipse XDB-C18 guard column (4.6 mm×12.5 mm) and an Atlantis HILIC column (150×2.1 mm ID, […]). The mobile phase consisted of water containing 0.1% formic acid as Component A and acetonitrile as component B. A linear gradient was run as follows: 0 minutes 95% B; 5 minutes 60% B; 6 minutes 80% B; 10 minutes 95% B at a flow rate of 1.0 ml/minutes. The total run time was 15 minutes per sample. Identification and quantification of the analytes was accomplished using an API-4000 LC-MS/MS in positive electrospray ionization mode and data was acquired employing multiple reaction monitoring (MRM) and the following MRM transitions: MNF (369-200); MNF-Gluc (545-200).
Ten mg/kg MNF was administered IV to male Sprague-Dawley rats and the plasma concentrations of MNF were determined between 10 minutes and 24 hours post administration with the levels measured in 3 animals per time point. In the same study, the concentration of MNF in brain tissue was measured between 10 and 60 minutes after administration with 3 animals per time point. The MNF concentration in brain tissue was 200 ng/mg tissue at 10 minutes after administration and peaked at 30 minutes at 800 ng/mg tissue. The relative distribution between the concentration of MNF in blood (measured as ng/ml) and brain tissue (measured as ng/mg tissue) was 0.2 at 10 minutes and 1.0 at 30 minutes and 60 minutes reflecting an equivalent distribution between both the central and peripheral body compartments. […] Further, the apparent volume of distribution (V) is high indicating extensive tissue distribution.

[3] = target: GPR55 (Homo sapiens, UniProt Q9Y2T6); assay: Cellular uptake of TocriFluor T1117 in HepG2 cells; assay type: cell-based; parameters: host or cells: HepG2 hepatocarcinoma cells
Sequence of GPR55 (Q9Y2T6 whole entry): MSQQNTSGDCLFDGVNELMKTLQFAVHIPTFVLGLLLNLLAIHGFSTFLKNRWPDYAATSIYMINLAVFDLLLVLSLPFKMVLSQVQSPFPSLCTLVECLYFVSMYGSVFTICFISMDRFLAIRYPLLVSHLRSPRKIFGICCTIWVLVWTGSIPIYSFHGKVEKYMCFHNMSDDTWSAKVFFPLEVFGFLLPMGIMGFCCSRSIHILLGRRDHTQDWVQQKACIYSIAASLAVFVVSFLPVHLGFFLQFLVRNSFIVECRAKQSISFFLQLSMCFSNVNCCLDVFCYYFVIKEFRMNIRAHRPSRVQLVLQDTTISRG

[4] = test system: PANC-1 cells; assay: Scratch wound-healing assay, PANC-1 cells; assay type: cell-based, human; conditions: PANC-1, 1 μM
Procedure: Scratch assays. These assays were carried out essentially as described previously (Fiori et al., Endocrinology 150: 2551-2560, 2009). In brief, cells were seeded in 12-well nontreated polystyrene cell culture plates with flat bottom (Greiner Bio-One, Monroe, N.C.). Once the cells became confluent, a scratch wound was made with a pipette tip and pictured immediately (time 0). […] Cell migration was examined at 12, 24, 36, 48 hours and 12, 18, 24, 48 hours after scratch for the HepG2 and PANC-1 cells, respectively. Images of the same field were taken every 3 hours to determine the rate of cell migration. Images were captured on an Axiovert 200 inverted microscope (Carl Zeiss, Thornwood, N.Y.) mounted with an AxioCam HRc digital camera (Carl Zeiss) and the measurement of scratch area was performed with ImageJ 1.46s software (National Institutes of Health, Bethesda, Md.). Each study was performed in duplicate dishes and repeated at least twice.

[5] = target: T1, CYP3A4 (Homo sapiens, UniProt P08684); assay: CYP inhibition in human liver microsomes, CYP3A4; assay type: in vitro ADME; conditions: 10 μM, 20 minutes, 37° C.
T1 construct: from tissue; host or cells: human liver microsomes
T1 sequence (P08684 whole entry): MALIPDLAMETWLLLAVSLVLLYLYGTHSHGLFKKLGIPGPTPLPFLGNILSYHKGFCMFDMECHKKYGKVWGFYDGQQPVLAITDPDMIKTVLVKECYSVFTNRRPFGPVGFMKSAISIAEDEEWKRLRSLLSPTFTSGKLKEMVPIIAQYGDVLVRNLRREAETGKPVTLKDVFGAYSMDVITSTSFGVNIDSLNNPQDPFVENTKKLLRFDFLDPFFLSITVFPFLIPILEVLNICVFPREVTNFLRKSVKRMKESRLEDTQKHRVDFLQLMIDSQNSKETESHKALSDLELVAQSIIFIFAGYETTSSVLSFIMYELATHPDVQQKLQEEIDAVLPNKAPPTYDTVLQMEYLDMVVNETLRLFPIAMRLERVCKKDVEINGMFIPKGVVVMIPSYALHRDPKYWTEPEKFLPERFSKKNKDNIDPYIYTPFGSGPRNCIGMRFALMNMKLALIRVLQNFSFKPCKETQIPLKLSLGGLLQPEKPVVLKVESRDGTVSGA
Procedure: Incubations containing known CYP inhibitors were also included as positive controls. Formation of the model substrate metabolites was measured by LC-MS/MS and compared to control incubations (incubation of substrates with microsomes and cofactors, no test articles or inhibitors). CYP activity in presence of test compound (MNF) that was less than 70% of control was considered significant. MNF (10 μM) inhibited CYP2D6 and CYP3A4 to less than 70% of the control. Further, the primary metabolite was determined to be O-demethylated-MNF. These studies indicate that MNF alters the metabolism of other drugs or endogenous compounds that are substrates for CYP2D6 and/or CYP3A4 isoforms, when present in the plasma or liver at 10 μM or higher.

[6] = In vitro metabolic stability, rat liver microsomes; assay type: in vitro ADME; conditions: rat liver microsomes and cofactors, 37° C., 0-60 minutes
Procedure: FIG. 10 presents the data from the in vitro metabolic stability study in which MNF was incubated (in duplicate) with active and heat-inactivated human (HLM) and rat (RLM) liver microsomes and cofactors at 37° C. Aliquots were removed at 0, 15, 30 and 60 minutes and the amount of test compound (MNF) remaining at each time point was determined by LC-MS/MS.

[7] = 10 mg/kg IV, individual rat, 10 mg/kg

COc1ccc(C[C@@H](C)NC[C@H](O)c2cc(O)cc(O)c2)c2ccccc12 [(R,R′)-MNF, (R,R′)-4′-methoxy-1-naphthylfenoterol]
effects on the central nervous system [1]: not have any significant negative effects on the central nervous system
AUCinf ([2]; 10 mg/kg IV, Mean): 4378.0 ng·h/mL
AUClast ([2]; 10 mg/kg IV, Mean): 3519.3 ng·h/mL
Cmax ([2]; 10 mg/kg IV, Mean): 1823.0 ng/mL
t1/2 (hr), elimination phase half life ([2]; 10 mg/kg IV, Mean): 13.8 h
AUCinf [2, 7]: 4103.6 ng·h/mL and 5335.2 ng·h/mL and 3695.2 ng·h/mL
AUClast [2, 7]: 3582.2 ng·h/mL and 4070.7 ng·h/mL and 2905.1 ng·h/mL
Cmax [2, 7]: 1780.7 ng/mL and 2304.9 ng/mL and 1383.4 ng/mL
t1/2 (hr), elimination phase half life [2, 7]: 9.8 h and 18.6 h and 13.0 h
C^0 (ng/ml), plasma concentration extrapolated to time 0 ([2]; 10 mg/kg IV, Mean): 3168.5 ng/mL
Cl (ml/hr/kg), whole body clearance ([2]; 10 mg/kg IV, Mean): 2339.1 mL/h/kg
V (l/kg), apparent volume of distribution ([2]; 10 mg/kg IV, Mean): 45.1 L/kg
C^0 (ng/ml), plasma concentration extrapolated to time 0 [2, 7]: 3033.4 ng/mL and 4131.4 ng/mL and 2340.7 ng/mL
Cl (ml/hr/kg), whole body clearance [2, 7]: 2436.9 mL/h/kg and 1874.4 mL/h/kg and 2706.2 mL/h/kg
V (l/kg), apparent volume of distribution [2, 7]: 34.3 L/kg and 50.4 L/kg and 50.6 L/kg
MNF concentration in brain tissue ([2]; rats, 10 mg/kg IV, 10 minutes after administration): 200 ng/mg tissue
MNF concentration in brain tissue (peak) ([2]; rats, 10 mg/kg IV, 30 minutes after administration): 800 ng/mg tissue
passage through the blood brain barrier ([2]; rats, IV): capable of passing through the blood brain barrier
reduction in T1117 incorporation ([3]; HepG2, MNF alone (1 μM), 10 nM T1117): ~70%
reduction in T1117 incorporation as compared to vehicle-treated cells ([3]; HepG2, MNF with AM251 added either before or after the 30-minutes MNF treatment): ~6.8 fold
T1117 uptake ([3]; HepG2, MNF 1 μM or AM251 10 μM for 1 hour, then T1117 0.1 μM): dramatically reduced
cell motility, compound alone [4]: did not alter the constitutive rate of gap filling
effect on AM251-induced motility ([4]; AM251 1 μM): produced significant decrease in AM251-induced motility of PANC-1 cells
effect on wound closure evoked by O-1602 ([4]; O-1602 1 μM): inhibit the wound closure evoked by O-1602 in PANC-1 cells
CYP3A4 activity in presence of test compound [5]: less than 70 % of the control
metabolic stability, MNF levels [6]: greater decrease in MNF levels
